Test results published in patent US20100240581A1, “SELECTIVE PROTEASOME INHIBITORS FOR TREATING DIABETES” (The Trustees of Columbia University in the City of New York, priority 2006, published 2010).
“Also recorded” adds a separate entry of the source.

Legend:
male C57BL/6J ob/ob mice [1] = experiment: Body composition (Bruker NMR), food intake and liver in ob/ob mice; assay type: in vivo, mouse
[2] = system: diabetic streptozotocin-treated rat; conditions: oral curcumin therapy; preclinical studies, mostly streptozotocin-treated rat; cited from earlier work
[3] = system: adiponectin (Acdc), F480 (Emr1); experiment: Quantitative real-time PCR of white adipose tissue of ob/ob mice; assay type: in vivo, mouse; conditions: dietary curcumin, 10 weeks; male ob/ob mice
From the text: (§1) Given that the adipose tissue of obese subjects is chronically inflamed and secretes diabetogenic adipokines, we investigated the possibility that proteasome inhibition improves diabetes by decreasing adipose inflammation in obese diabetic mice.

male C57BL/6J DIO mice [4] = experiment: Body composition, food intake and liver in DIO mice; assay type: in vivo, mouse
male C57BL/Ks db/db mice [5] = experiment: Body composition (Bruker NMR), food intake and liver in db/db mice; assay type: in vivo, mouse; conditions: dietary curcumin (3%)
male C57BL/6J ob/ob mice [6] = experiment: Insulin tolerance test in ob/ob mice; assay type: in vivo, mouse; conditions: dietary curcumin (3%)
Experimental: (§2) This translated into a daily consumption by the mice of roughly 1.0 to 1.5 g/kg/day.
(§3) This effect was noted to last for at least 48 hours post-injection. Mice receiving vehicle in the celastrol and epoxomicin experiments were food entrained to the treatment group to avoid any acute effects on glucose levels from differences in food intake.

[7] = system: TNF-α, Socs-3, Ccl2 (MCP-1 gene) and Ccr2 (MCP-1 receptor gene); experiment: Quantitative real-time PCR of hepatic inflammatory genes in ob/ob mice; assay type: in vivo, mouse; conditions: dietary curcumin, 10 weeks; male ob/ob mice
From the text: (§4) These included TNF-α, Socs-3, Ccl2 (MCP-1 gene) and Ccr2 (MCP-1 receptor gene).

[8] = system: macrophages in adipose tissue of ob/ob mice; experiment: Adipose macrophage immunohistochemistry (F480 antibody) in ob/ob mice; assay type: in vivo, mouse; conditions: dietary curcumin; male C57BL/6J ob/ob mice
[9] = system: DIO C57BL/6J, C57BL/6J ob/ob and C57BL/Ks db/db mice; experiment: Random fed glucose and HbA1c in the three mouse models of diabetes; assay type: in vivo
[10] = system: pancreatic islets of C57BL/Ks db/db mice; experiment: Immunohistology of pancreatic islets in db/db mice; assay type: in vivo, mouse; conditions: curcumin-treated C57BL/Ks db/db mice
From the text: (§5) As FIGS. 19 and 20 A-C reveal, untreated ob/ob mice develop pancreatic β-cell hyperplasia and hyperinsulinemia, a phenomenon that ultimately allows them to recoup normoglycemia. The pancreatic islets in untreated C57BL/Ks db/db mice however, degenerate (FIG. 20 D-F).

male C57BL/6J DIO mice [11] = experiment: Glucose tolerance test in DIO mice; assay type: in vivo, mouse; conditions: dietary curcumin
Experimental: as §2, §3

[12] = Serum adiponectin in ob/ob mice; assay type: in vivo, mouse; conditions: curcumin-treated ob/ob mice (not shown)
From the text: as §1

[13] = Serum insulin in db/db mice; assay type: in vivo, mouse; conditions: for serum insulin: single i.p. dose, celastrol 3 mg/kg or epoxomicin 0.1 mg/kg, 24 hours post injection, male C57BL/Ks db/db mice
From the text: as §5

male C57BL/6J ob/ob mice [14] = experiment: Blood glucose in ob/ob mice on dietary curcumin; assay type: in vivo, mouse; conditions: dietary curcumin (3%), p<0.05
male C57BL/Ks db/db mice [15] = experiment: Blood glucose in db/db mice (dietary curcumin or single i.p. injection); assay type: in vivo, mouse; conditions: for blood glucose after a single intraperitoneal injection: epoxomicin 0.1 mg/kg or celastrol 3 mg/kg i.p., male db/db mice, noted approximately 10 hours after injection; for duration of blood glucose lowering after injection: single i.p. injection
From the text: as §2
Male C57BU6J mice gradually develop obesity and moderate diabetes when placed on high-fat diets, a process quite analogous to that in humans. […] However, the loss of leptin effect on the C57BL/Ks background is not compensated for by β-cell hyperplasia and hyperinsulinemia. At a very young age these mice become severely hyperglycemic, hyperphagic, and polydipsic. As they mature, they start to lose weight, develop nephropathy, and ultimately die around age 40 weeks from diabetic complications.
as §3

NFkB p65 = experiment: p65 activity assay (TransAM NFkB p65 Kit) in liver nuclear extracts of ob/ob mice; assay type: in vivo, mouse; conditions: dietary curcumin, 10 weeks; liver nuclear extract of ob/ob mice
From the text: as §4

[16] = daily doses about 0.5 to about 3.0 mg/kg/d (i.p.); cited from earlier work
[17] = system: Glucotoxic HIT-T15 β-cells; conditions: cited from earlier work
[18] = system: human prostrate cancer growth in nude mice; conditions: tumor-bearing nude mice; 1-3 mg/kg/d (i.p.); cited from earlier work
rat β-cell line INS-1 = experiment: INS-1 viable cell number (CellTiter-Blue Cell Viability Assay); assay type: cell-based; conditions: INS-1 cells, 24 hours
From the text: To follow-up on the potential ability of proteasome inhibition to improve β-cell function, we performed experiments using the rat β-cell line Ins-1.

[19] = system: adiponectin (Acdc), Ccl2 (MCP-1); experiment: Gene expression in white adipose tissue of db/db mice after celastrol; assay type: in vivo, mouse; conditions: celastrol i.p. once daily for 3 days; male db/db mice
[20] = target: chymotrypsin-like activity of a purified 20S proteasome (Homo sapiens, UniProt P28074); conditions: reported (ref. 83); cited from earlier work
[21] = target: T1, human prostate cancer cellular 26S proteasome (Homo sapiens, UniProt P28074); conditions: reported (ref. 83); cited from earlier work
T1 construct: human prostate cancer cellular 26S proteasome

male C57BL/Ks db/db mice [22] = experiment: Insulin tolerance test in db/db mice; assay type: in vivo, mouse; conditions: celastrol i.p., 24 hours after a single injection
Experimental: as §3

[23] = curcumin-fed ob/ob mice vs controls (data not shown)
[24] = dietary curcumin (3%), ob/ob mice

## COc1cc(/C=C/C(=O)CC(=O)/C=C/c2ccc(O)c(OC)c2)ccc1O [curcumin]
Male C57BL/6J ob/ob mice [1]; [23]
  degree of liver steatosis: significantly lower
  liver weight: significantly lower
Male C57BL/6J ob/ob mice [1]; [24]
  adipose mass / body fat: significantly less body fat; also recorded: significantly decreases
  body weight: weighed slightly but significantly less; also recorded: significantly decreases body weight
  lean body mass (NMR): significantly more lean mass; also recorded: significantly increases lean body mass
[2]
  diabetes-related hyperglycemia or end-organ damage: prevents, delays, or ameliorates diabetes-related hyperglycemia or end-organ damage
[3]
  F480 (Emr1) expression in white adipose tissue: significantly decreased macrophage-specific Emr1 (F480) expression; also recorded: decreases F480 (Emr1) expression
  adiponectin (Acdc) expression in white adipose tissue: dramatically increased; also recorded: significantly increases expression of adiponectin (Acdc)
Male C57BL/6J DIO mice [4]; 3% curcumin in food, DIO mice
  body weight: weighed slightly but significantly less
Male C57BL/6J DIO mice [4]; curcumin treatment, DIO mice
  liver weight: significantly lower; also recorded: significantly decreased
Male C57BL/6J DIO mice [4]; curcumin-fed DIO mice vs controls (data not shown)
  degree of liver steatosis: significantly lower
Male C57BL/6J DIO mice [4]; one month of curcumin treatment, DIO mice
  body fat percentage / body fat: significantly less body fat; also recorded: significantly decreased body fat percentage
Male C57BL/Ks db/db mice [5]
  body weight: weighed more; also recorded: significantly increased
  lean muscle mass (NMR): significantly more lean mass; also recorded: significantly increased lean muscle mass
Male C57BL/6J ob/ob mice [6]
  AUC of insulin tolerance test: decreased area under the curve (AUC); also recorded: significantly lowers AUC of insulin tolerance test
[7]
  hepatic expression of pro-inflammatory genes (TNF-α, Socs-3, Ccl2, Ccr2): significantly downregulated; also recorded: significantly lowers hepatic expression of pro-inflammatory genes
[8]
  adipose macrophage infiltration (F480 staining): dramatic reduction in the number of macrophages; also recorded: significant reduction of adipose macrophage infiltration
[9]; 3% dietary curcumin, all mouse models of diabetes tested
  HbA1c levels: significant decreases; also recorded: decreases HbA1c percentage
[9]; 3% dietary curcumin, all three diabetic mice categories, as early as 2-3 weeks
  random fed glucose: significant decreases
[9]; dietary curcumin (3%), non-diabetic mice
  HbA1c percentage in non-diabetic mice: not affected
[10]
  proliferating β-cells (nuclear Ks67 immunoreactivity): contain some proliferating β-cells
[10]; age 20 weeks
  pancreatic islet morphology (hyperplasia): islets actually become hyperplastic; also recorded: hyperplasia of the pancreatic islets
Male C57BL/6J DIO mice [11]
  AUC of glucose tolerance test: improved glucose tolerance; also recorded: significantly lowers AUC of glucose
[12]
  serum adiponectin levels: significantly higher
[13]; dietary curcumin, db/db mice
  serum insulin levels: exhibit hyperinsulinemia; also recorded: significantly increased serum insulin levels
Male C57BL/6J ob/ob mice [14]
  effect on hyperglycemia (blood glucose): significant protective effect against hyperglycemia
Male C57BL/Ks db/db mice [15]; dietary curcumin (3%), male C57BL/Ks db/db mice, p<0.05
  effect on hyperglycemia (blood glucose): significant protection against hyperglycemia
NFkB p65
  hepatic NF-κB activity: significantly less NFkB activity; also recorded: significantly decreases hepatic NF-κB activity

## CC[C@H](C)[C@H](NC(=O)[C@H]([C@@H](C)CC)N(C)C(C)=O)C(=O)N[C@H](C(=O)N[C@@H](CC(C)C)C(=O)[C@@]1(C)CO1)[C@@H](C)O [epoxomicin]
[16]
  antiinflammatory activity: exhibits antiinflammatory activity
[13]
  serum insulin: significant increases in serum insulin; also recorded: significantly increase serum insulin
Male C57BL/Ks db/db mice [15]
  blood glucose after a single intraperitoneal injection: correction of hyperglycemia; also recorded: significantly lowers blood glucose
Male C57BL/Ks db/db mice [15]; male C57BL/Ks db/db mice
  duration of blood glucose lowering after injection: ~2 days

## CC(=O)N[C@@H](CSC(=O)[C@]1([C@@H](O)C(C)C)NC(=O)[C@H](C)[C@@H]1O)C(=O)O [lactacystin]
[17]
  MafA protein: caused an accumulation of MafA protein

## celastrol
[18]
  tumor growth: inhibition of tumor growth
Rat β-cell line INS-1
  cell viability at highest concentrations: proved cytotoxic; also recorded: negative effects on cell viability
[19]
  Ccl2 (MCP-1) expression in white adipose tissue: significantly decreased adipose expression of Ccl-2; also recorded: decreasing expression of Ccl2 (MCP-1)
  adiponectin (Acdc) expression in white adipose tissue: significantly increased expression of adiponectin; also recorded: significantly increases expression of adiponectin (Acdc)
[20]
  IC50: 2500 nM
[21]
  concentration inhibiting human prostate cancer cellular 26S proteasome: 1-5 μM/L
Male C57BL/Ks db/db mice [22]
  AUC of ITT: improved insulin tolerance; also recorded: significantly lower AUC of ITT
[13]
  serum insulin: significant increases in serum insulin; also recorded: significantly increase serum insulin
Male C57BL/Ks db/db mice [15]
  blood glucose after a single intraperitoneal injection: correction of hyperglycemia; also recorded: significantly lowers blood glucose
Male C57BL/Ks db/db mice [15]; male C57BL/Ks db/db mice
  duration of blood glucose lowering after injection: ~2 days
